Measured values taken from patent publication US20090035270A1, “COMBINATION THERAPY USING ANTI-ANGIOGENIC AGENTS AND TNF alpha” (priority 2001, published 2009).
Residues, ends and D or L forms follow the SMILES beside them. *: point of attachment. Cbz = O=C(OCc1ccccc1)*; CH2F = FC*

What was measured:
Format in all cases: cell-based, human
[1] = test system: ICAM-1 expression; assay: Flow cytometry of ICAM-1 cell surface expression induced by TNF in HUVEC; settings: HUVEC treated with TNF
Description: Activation of the nuclear factor-κB (NF-κB) promotes survival of cells exposed to TNF (Beg & Baltimore, Science 274, 782-784; Van Antwerp et al., Science 274, 787-789 (1996)). Since cell adhesion via integrins activates NF-κB (Scatena et al., J. Cell Biol. 141, 1083-1093 (1998)), we investigated whether the sensitivity of spheroids to TNF-induced apoptosis was due to lack of NF-κB activation. NF-κB activation was assessed by measuring I-κB phosphorylation and degradation, NF-κB nuclear translocation and cell surface expression of ICAM-1, an NF-κB-induced gene (Collins et al., Faseb J. 9, 899-909. (1995)), in spheroid and fibronectin-adherent HUVEC cultures exposed to TNF±IFNγ.
Aktmp suppresses TNF-induced apoptosis of spheroids in the presence of active NF-κB. We also tested whether both NF-κB activation and active Akt signaling were required for the survival, or whether active Akt alone was sufficient. […]
Indirect immunostaining of HUVEC and EGFP expression were performed following standard protocol (Ruegg et al., I.c.). […] Ail samples were analyzed with a FACScan II® and Cell Quest® software (Becton Dickinson, Mountain View Calif., USA).

[2] = test system: HUVEC; assay: Detection of apoptotic HUVEC in culture (YoPro-1 staining); settings: spheroids; TNF±IFNγ
Description: To test whether integrins modulate TNF-induced apoptosis, we cultured HUVEC on fibronectin (integrin-dependent adhesion) or as spheroids (integrin-independent adhesion) in the absence or presence of TNF (200 ng/ml) and of IFNγ (330 ng/ml), an enhancer of TNF cytotoxicity (Dealtry et al., Eur. J. Immunol. 17, 689-693 (1987)). […] In contrast, spheroids treated with TNF±IFNγ increased uptake of YoPro-1 (an increase suppressed by caspase inhibitors BOC, Z-VAD, IETD and DVED), DNA fragmentation, caspase-3 activation and cleavage of PARP (FIG. 2a, 2b and data not shown). To examine the effect of TNF±IFNγ on cell survival we determined the viability of untreated and treated cultures. […] Treatment with IFNγ alone was not cytotoxic (data not shown). HUVEC adhere to immobilized fibronectin via αVβ3 and α5β1 integrins (Rüegg et al., Nature Med. 4, 408-414 (1998)). To test for the individual contribution of these integrins to cell survival on fibronectin, we cultured HUVEC on plastic-immobilized mAbs (imAbs) directed against αVβ3, α1, α5 and α4 integrins.
For morphological evaluation, spheroids were embedded in Epon (Fluka Chemie) and thick sections were stained with 1% Methylene/Azur blue. For immunostaining, frozen spheroid sections were fixed in 4% (Fluka Chemis, Buchs, Switzerland) formaldehyde. After blocking with 1% BSA, sections were sequentially incubated for 1 hour with primary mAb (20 μg/ml) and a Cyan3-labeled GaM antiserum (West Grove, Pa., USA). For the TUNEL reaction, frozen spheroids sections were fixed in 4% paraformaledhyde and processed as described (Ruegg et al., I.e.). Spherouids were countsrstained with propidium iodide for total DNA content. […] The apoptosis index was determined by calculating the ratio between the green (TUNEL staining of fragmented DNA) and red (propidium iodide staining by total DNA) pixels. Number of analyzed spheroids per condition were: C, 31; T, 21; TI, 12. […] Cultures were viewed by inverted fluorescence microscopy (Leica DM IRB, Heerbrugg, Switzerland). […]

[3] = test system: HUVEC; assay: HUVEC spheroid formation (aggregation) in BSA-coated wells; settings: mAbs 10 μg/ml, EDTA 5 mM, evaluated at 6 and 16 hours
Description: To test the effect of integrin ligation on TNF-induced apoptosis we identified conditions where endothelial cells could be cultured without integrin-dependent adhesion. Single cell suspensions of endothelial cells rapidly die by anoikis (Meredith et al., Mol. Biol. Cell 4, 953-961 (1993)) thus precluding further analysis. But by seeding human umbilical vein endothelial cells (HUVEC) at high density (1.0×10^6 cells/ml) in BSA-coated wells multicellular spheroids formed within 2-4 hours, and could be maintained for over 24 hours dependent on VE-cadherin and without any detectable contribution from integrins.
HUVEC were collected by trypsinization, resuspended in complete medium at 1.0×10^6 cells/ml and 1 ml/well were seeded into 12 wells non-tissue culture plates (Evergreen Scientific, Los Angeles, Calif., USA) previously coated with 1% BSA. For aggregation studies, 200 μl of the cell suspension were seeded into 1% BSA-coated microwells of ELISA plates (Maxisorp II, NUNC, Roskilde, Denmark) alone or in the presence of mAbs (10 μg/ml), EDTA (5 mM) or Ca^2+/EDTA (10/5 mM). Spheroid formation was evaluated at 6 hours and 16 hours. Micrographs were take with a Televal 31 microscope (Cart Zeiss AG, Zürich; Switzerland).

[4] = test system: HUVEC; assay: Death ligand cytotoxicity on fibronectin-cultured HUVEC with EMD121974 (viability); settings: EMD121974 300 μM, ligand 200 ng/ml, overnight
Description: FIG. 8. Decreased integrin ligation enhances TNF-, TRAIL- and FasL-induced cytotoxicity in vitro. HUVEC were cultured overnight on fibronectin coated microtiter plates in the absence (control) or presence of EMD121974 (300 μM), TNF (200 ng/ml), FasL (200 ng/ml), TRAIL (200 ng/ml), LIGHT (200 ng/ml), and IFNγ (330 ng/ml) as indicated. Viability was determined by MST assays.

## COC[C@H]1OC(=O)c2coc3c2[C@@]1(C)C1=C(C3=O)[C@@H]2CCC(=O)[C@@]2(C)C[C@H]1OC(C)=O [wortmannin]
[1]
  inhibition of ICAM-1 expression induced by TNF: did not inhibit

## O=c1cc(N2CCOCC2)oc2c(-c3ccccc3)cccc12 [LY294002]
[1]
  inhibition of ICAM-1 expression induced by TNF: did not inhibit

## IETD
[2]
  effect of caspase inhibitor on increased YoPro-1 uptake of spheroids treated with TNF±IFNγ: suppressed

## O=C(O)CN(CCN(CC(=O)O)CC(=O)O)CC(=O)O [EDTA]
[3]
  HUVEC spheroid formation: blocked spheroid formation

## CC(NC(=O)C(NC(=O)OCc1ccccc1)C(C)C)C(=O)NC(CC(=O)O)C(=O)CF (stereo not drawn) [Z-VAD] (Cbz-Val-Ala-Asp-CH2F; configuration not given here)
[2]
  effect of caspase inhibitor on increased YoPro-1 uptake of spheroids treated with TNF±IFNγ: suppressed

B1: FasL: death ligand of the TNF-ligand family (Fas ligand) (protein, UniProt P48023 130-281, looked up)
Tumor necrosis factor ligand …: QIGHPSPPPEKKELRKVAHLTGKSNSRSMPLEWEDTYGIVLLSGVKYKKGGLVINETGLYFVYSKVYFRGQSCNNLPLSHKVYMRNSKYPQDLVMMEGKMMSYCTTGQMWARSSYLGAVFNLTSADHLYVNVSELSLVNFEESQTFFGLYKL
[4]
  sensitivity to pro-apoptotic effects of death ligand in the presence of EMD121974 (synergism with αVβ3-blockage): Increased sensitivity

B2: TRAIL: death ligand of the TNF-ligand family (protein, UniProt P50591 1-281, looked up)
Tumor necrosis factor ligand …: MAMMEVQGGPSLGQTCVLIVIFTVLLQSLCVAVTYVYFTNELKQMQDKYSKSGIACFLKEDDSYWDPNDEESMNSPCWQVKWQLRQLVRKMILRTSEETISTVQEKQQNISPLVRERGPQRVAAHITGTRGRSNTLSSPNSKNEKALGRKINSWESSRSGHSFLSNLHLRNGELVIHEKGFYYIYSQTYFRFQEEIKENTKNDKQMVQYIYKYTSYPDPILLMKSARNSCWSKDAEYGLYSIYQGGIFELKENDRIFVSVTNEHLIDMDHEASFFGAFLVG
[4]
  sensitivity to pro-apoptotic effects of death ligand in the presence of EMD121974 (synergism with αVβ3-blockage): Increased sensitivity

B3: LIGHT: ligand binding to receptors lacking a death domain (protein, UniProt O43557 83-240, looked up)
Tumor necrosis factor ligand …: LIQERRSHEVNPAAHLTGANSSLTGSGGPLLWETQLGLAFLRGLSYHDGALVVTKAGYYYIYSKVQLGGVGCPLGLASTITHGLYKRTPRYPEELELLVSQQSPCGRATSSSRVWWDSSFLGGVVHLEAGEKVVVRVLDERLVRLRDGTRSYFGAFMV
[4]
  sensitivity to pro-apoptotic effects of death ligand in the presence of EMD121974 (synergism with αVβ3-blockage): no synergism
